# Patent US5877019A, “Animal 2-5A-dependent RNases and encoding sequences therefor” (Cleveland Clinic Foundation, priority 1996, dated 1999)
# “Also recorded” adds a separate entry of the source.
# T1: 2-5A-dependent RNase (Homo sapiens, UniProt Q05823)
# T1 sequence (Q05823 1-741): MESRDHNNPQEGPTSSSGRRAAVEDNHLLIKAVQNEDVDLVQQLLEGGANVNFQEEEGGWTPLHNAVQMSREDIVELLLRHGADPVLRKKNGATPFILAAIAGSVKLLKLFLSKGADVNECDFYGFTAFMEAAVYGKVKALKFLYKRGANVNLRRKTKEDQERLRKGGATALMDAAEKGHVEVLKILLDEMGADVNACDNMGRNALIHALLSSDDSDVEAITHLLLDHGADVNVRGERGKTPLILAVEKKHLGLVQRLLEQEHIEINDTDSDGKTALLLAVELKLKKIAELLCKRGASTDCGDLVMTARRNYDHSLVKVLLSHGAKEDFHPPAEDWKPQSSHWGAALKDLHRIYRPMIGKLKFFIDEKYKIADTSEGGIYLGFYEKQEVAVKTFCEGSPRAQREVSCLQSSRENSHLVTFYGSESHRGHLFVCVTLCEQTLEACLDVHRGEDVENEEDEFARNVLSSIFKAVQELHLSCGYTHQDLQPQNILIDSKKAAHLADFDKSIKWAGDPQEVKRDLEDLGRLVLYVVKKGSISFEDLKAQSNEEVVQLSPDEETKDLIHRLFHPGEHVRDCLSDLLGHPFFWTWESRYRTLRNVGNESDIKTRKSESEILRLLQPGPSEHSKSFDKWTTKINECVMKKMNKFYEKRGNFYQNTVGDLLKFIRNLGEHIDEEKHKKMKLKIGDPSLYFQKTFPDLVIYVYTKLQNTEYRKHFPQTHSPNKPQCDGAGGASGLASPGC
# B1: clone ZB15: murine 2-5A-dependent RNase deletion, amino acids 1 to 218, both P-loop motifs deleted (protein, UniProt Q05921 1-218, looked up, fragment)
# chain: METPDYNTPQGGTPSAGSQRTVVEDDSSLIKAVQKGDVVRVQQLLEKGADANACEDTWGWTPLHNAVQAGRVDIVNLLLSHGADPHRRKKNGATPFIIAGIQGDVKLLEILLSCGADVNECDENGFTAFMEAAERGNAEALRFLFAKGANVNLRRQTTKDKRRLKQGGATALMSAAEKGHLEVLRILLNDMKAEVDARDNMGRNALIRTLLNWDCENV
# B2: clone ZB11: murine 2-5A-dependent RNase deletion, amino acid residues 1 to 342 (protein, UniProt Q05921 1-342, looked up, fragment)
# chain: METPDYNTPQGGTPSAGSQRTVVEDDSSLIKAVQKGDVVRVQQLLEKGADANACEDTWGWTPLHNAVQAGRVDIVNLLLSHGADPHRRKKNGATPFIIAGIQGDVKLLEILLSCGADVNECDENGFTAFMEAAERGNAEALRFLFAKGANVNLRRQTTKDKRRLKQGGATALMSAAEKGHLEVLRILLNDMKAEVDARDNMGRNALIRTLLNWDCENVEEITSILIQHGADVNVRGERGKTPLIAAVERKHTGLVQMLLSREGINIDARDNEGKTALLIAVDKQLKEIVQLLLEKGADKCDDLVWIARRNHDYHLVKLLLPYVANPDTDPPAGDWSPHSSRW
# B3: clone ZB13: murine 2-5A-dependent RNase deletion, amino acids 1 to 294 (protein, UniProt Q05921 1-294, looked up, fragment)
# chain: METPDYNTPQGGTPSAGSQRTVVEDDSSLIKAVQKGDVVRVQQLLEKGADANACEDTWGWTPLHNAVQAGRVDIVNLLLSHGADPHRRKKNGATPFIIAGIQGDVKLLEILLSCGADVNECDENGFTAFMEAAERGNAEALRFLFAKGANVNLRRQTTKDKRRLKQGGATALMSAAEKGHLEVLRILLNDMKAEVDARDNMGRNALIRTLLNWDCENVEEITSILIQHGADVNVRGERGKTPLIAAVERKHTGLVQMLLSREGINIDARDNEGKTALLIAVDKQLKEIVQLLLE
# What was measured:
# 2-5A-dependent RNase [1] = target: T1, 2-5A-dependent RNase; assay: Divalent cation and ATP effects on 2-5A-dependent RNase activity of dialyzed enzyme; assay type: biochemical; settings: EDTA/EGTA buffer
# Experimental: (§1) The divalent cation requirements of 2-5A-dependent RNase were determined after extensive dialysis against buffer containing both EDTA and EGTA. More particularly, purified 2-5A-dependent RNase (about 100 μg in 100 μl), post-mono Q column fraction, was dialyzed at 4° C. against 25 mM Tris-HCl (pH 7.4), 2.5 mM EDTA, 2.5 mM EGTA, 14 mM 2-mercaptoethanol, and 100 mM KCl (first against 400 ml for four hours, then against 600 ml for ten hours, and finally against 200 ml of reaction buffer (EDTA and EGTA were reduced to 0.5 mM) for another four hours.
# (§2) Activity assays were also performed in the presence of EDTA/EGTA to ensure the chelation of metal ions present in the reagents. […] For the filter binding assay, a ^32 P-labeled and bromine substituted 2-5A analog, p(A2'p)2 (br^8 A2'p)2 A3'-32P]Cp, 10,000 counts per minute per assay, at about 3,000 Ci per mmole, was incubated with fractions containing 2-5A-dependent RNase (or controls) at 4° C. for one hour.
# 2-5A-dependent RNase [2] = target: T1, 2-5A-dependent RNase; assay: Divalent cation and ATP effects on 2-5A binding activity of dialyzed enzyme; settings: EDTA/EGTA buffer
# Experimental: as §1, §2
# [3] = tested on: murine 2-5A-dependent RNase; assay: UV covalent crosslinking of 32P-2-5A probe in presence of unlabeled oligonucleotide competitors; assay type: binding; settings: for competition with binding of the 2-5A probe: competitor 100 nM, recombinant 74 kDa protein (clone ZB1) in wheat germ extract, similar profile for L929 cell enzyme; for concentration of competitor that prevents 2-5A probe binding: probe 2.4 nM, both truncated recombinant (ZB1) and naturally occurring L cell protein
# Experimental: FIG. 2A is a specific affinity of truncated murine 2-5A-dependent RNase for 2-5A. UV covalent crosslinking of the ^32 P-2-5A probe (lanes 1-7) to protein is performed after translation reactions in wheat germ extract (5 μl) with murine 2-5A-dependent RNase mRNA (from clone ZB1) (lanes 1-3) or without added RNA (lane 4) or in extract of interferon treated mouse L cells (100 μg of protein) (lanes 5-7). Reactions are without added competitor (lanes 1, 4, and 5) or in the presence of either trimer core. […] Lanes 8 and 9 are produced by incubating the wheat germ extract with ^35 S-methionine in the absence or presence of 2-5A-dependent RNase mRNA, respectively.
# Autoradiograms of the dried SDS/10% polyacrylamide gels are shown. Concentrations of the oligonucleotide competitors are indicated. I is inosine.
# The synthesis of the 2-5A probe, p(A2'p)2 (br^8 A2'p)2 A[32P]Cp, and its crosslinking to 2-5A-dependent RNase is performed exactly as described. See Nolan-Sorden, N. L. et al., Anal. Biochem., 184:298-304 (1990). Briefly, the 2-5A probe, about 0.7 to 2.5 nM at […], is incubated for about one hour on ice with cell extract prepared as described, Silverman, R. H. and Krause, D., I.R.L. Press, Oxford. England, pp. 149-193 (1987), in the absence or presence of unlabeled oligonucleotide competitors. Covalent crosslinking is done under a uv lamp (308 nm) for one hour on ice and the proteins are separated on SDS/10% polyacrylamide gels. Filter assays for 2-5A binding activity using the 2-5A probe for about one hour on ice, as described in Knight, M. et al., Nature, 288:189-192 (1980).
# [4] = tested on: human 2-5A-dependent RNase; settings: purified enzyme, poly(rU) substrate; for concentration giving maximal activation of 2-5A-dependent RNase: 30 minutes 30° C.
# Experimental: Assays were with 50 ng of superose 12 purified fractions of the 2-5A-dependent RNase at 30° C. for 30 minutes using 12 nM poly(rU)-^32 P[Cp] as substrate.
# To determine the structural requirement of 2-5A required for activation of 2-5A-dependent RNase, ribonuclease activity against poly(rU) was determined as a function of oligonucleotide concentration. The purified 2-5A-dependent RNase was used in these assays.
# (§3) RNA and DNA molecules used were poly(rU), poly(A), poly(G), poly(C), or poly(dT) from Pharmacia and were labeled at their 3'-termini with ^32 P-pCp (3,000 Ci per mmole) and T4 RNA ligase as described previously (Silverman, R. H., Anal. Biochem. 144, 450-460 1985). Fractions containing 2-5A-dependent RNase were incubated in the presence or absence of 100 nM of p3 (A2'p)3 A (or other oligonucleotides), 8 to 16 nM of ^32 P-labeled RNA in final volumes of 25 μls at 30° C. The trichloracetic acid-insoluble fraction of RNA was then determined by filtering on glass-fiber filters in the presence of carrier yeast tRNA as described previously (Silverman, R. H., Anal. Biochem. 144, 450-460 1985).
# [5] = tested on: human 2-5A-dependent RNase; assay: UV covalent crosslinking of 2-5A probe in presence of competitors; assay type: binding; settings: competitor 100 nM; recombinant human enzyme in wheat germ extract; same pattern in HeLa cell extract
# Experimental: FIG. 5A is specific affinity of recombinant human 2-5A-dependent RNase for 2-5A. Crosslinking of the 2-5A probe (lanes 1-7) to protein is performed after translation reactions in wheat germ extract (5 μl) with human 2-5A-dependent RNase mRNA (lanes 1-3) or without added RNA (lane 4) or in extract of human interferon α treated (1000 units per ml for 16 h) human HeLa cells (350 μg of protein) (lanes 5-7). […] Incubations with ^35 S-methionine are shown in lanes 8 to 12. Lane 8 is with wheat germ extract and human 2-5A-dependent RNase mRNA. Reticulocyte lysate preadsorbed to 2-5A-cellulose is incubated with human 2-5A-dependent RNase mRNA in the absence (lane 9) or presence (lane 10) of cycloheximide, or in the absence of added mRNA (lane 11). […] The positions and relative molecular masses (in kDa) of the marker proteins are indicated.
# The synthesis of the 2-5A probe, p(A2'p)2 (br^8 A2'p)2 A[32P]Cp, and its crosslinking to 2-5A-dependent RNase is performed exactly as described. See Nolan-Sorden, N. L. et al., Anal. Biochem., 184:298-304 (1990). Briefly, the 2-5A probe, about 0.7 to 2.5 nM at […], is incubated for about one hour on ice with cell extract prepared as described, Silverman, R. H. and Krause, D., I.R.L. Press, Oxford. England, pp. 149-193 (1987), in the absence or presence of unlabeled oligonucleotide competitors. […]
# [6] = tested on: human recombinant 2-5A-dependent RNase; assay: 2-5A-dependent ribonuclease assay, crude extract of recombinant baculovirus-infected insect cells, poly(rU) degradation; settings: activator at 100 nM, thirty minutes
# Experimental: Crude cell extracts, containing 2 μg of protein, were incubated with 12 nM poly(rU)-^32 p[Cp] for 30 minutes at 30° C. in the presence of absence of 100 nM of tetramer 2-5A. RNA degradation was determined by measuring acid-insoluble fraction of RNA as described (Silverman, R. H. Anal. Biochem., 144:450-460 1985).
# To measure the catalytic activity of the recombinant enzyme, ribonuclease assay was performed in the presence and absence of trimer 2-5A, p3 (A2'p)2 A. The degradation of radiolabeled poly(rU) to acid-soluble fragments was measured in this assay (Silverman, R. H., Anal. Biochem. 144,450-460 1985).
# as §3
# 2-5A probe = assay: 2-5A binding activity of nested 3'-deletion clones (filter binding and uv crosslinking); settings: protein expressed in wheat germ extract
# Description: See Example and Knight et al. (1980). The positions of the P-loop motifs and the lengths of the translation products are indicated. Clone ZB1 encodes for amino acids designated as 1-656 in Table II, except for the last 5 amino acid residues which are Lys, Pro, Leu, Ser, and Gly. Clone ZB2 encodes for amino acids designated as 1-619 in Table II. Clone ZB3 encodes for amino acids designated as 1-515 in Table II. Clone ZB5 encodes for amino acids designated as 1-474 in Table II. Clone ZB9 encodes for amino acids designated as 1-403 in Table II. Clone ZB10 encodes for amino acids designated as 1-365 in Table II. Clone ZB13 encodes for amino acids designated as 1-294 in Table II. Clone ZB14 encodes for amino acids designated as 1-265 in Table II. Clone ZB15 encodes for amino acids designated as 1-218 in Table II.
# To further define sequences involved in 2-5A binding, nested 3'-deletions of the murine 2-5A-dependent RNase cDNA, clone ZB1, are constructed, transcribed in vitro, and expressed in a wheat germ extract. […] The levels of 2-5A binding activity are determined with the 2-5A probe in both a filter binding assay, Knight, M. et al., Nature, 288:189-192 (1980), and the uv crosslinking assay, Nolan-Sorden, N. L. et al., Anal. Biochem., 184:298-304 (1990), with similar results. Expression of clone ZB11, encoding amino acid residues 1 to 342, results in a loss of only about 26% of the 2-5A binding activity as compared to clone ZB1 (amino acids 1 to 656). Clones intermediate in length between ZB1 and ZB11 all result in significant levels of 2-5A binding activity. […] See also Saraste, M. et al., TIBS, 14:430-434 (1990).
# The set of nested 3'-deletions of the truncated murine 2-5A-dependent RNase cDNA, ZB1, is generated with exonuclease III/S1 nuclease digestion followed by filling-in with Klenow DNA Polymerase using the "Erase-A-Base"system (Promega).
# The synthesis of the 2-5A probe, p(A2'p)2 (br^8 A2'p)2 A[32P]Cp, and its crosslinking to 2-5A-dependent RNase is performed exactly as described. See Nolan-Sorden, N. L. et al., Anal. Biochem., 184:298-304 (1990). […]
molecule,measurement,setting,value
[Ca+2] [calcium],effect on 2-5A-dependent RNase activity,2-5A-dependent RNase [1],no effect; also recorded: did not enhance ribonuclease activity
same,effect on 2-5A-binding activity,2-5A-dependent RNase [2],enhanced
[Mg+2] [magnesium],effect on 2-5A-dependent RNase activity,2-5A-dependent RNase [1],greatly stimulated
same,effect on 2-5A-binding activity,2-5A-dependent RNase [2],greatly stimulated
[Mn+2] [manganese],effect on 2-5A-dependent RNase activity,2-5A-dependent RNase [1],greatly stimulated
same,effect on 2-5A-binding activity,2-5A-dependent RNase [2],greatly stimulated
[Zn+2] [zinc],effect on 2-5A-dependent RNase activity,2-5A-dependent RNase [1],inhibitory
same,effect on 2-5A-binding activity,2-5A-dependent RNase [2],enhanced
(A2'p)2 A,fold higher concentration than trimer 2-5A required to prevent probe binding,[3]; both proteins,500 fold
same,competition with binding of the 2-5A probe,[3],fails to interfere
same,concentration of competitor that prevents 2-5A probe binding,[3],10 µM
same,fold reduced activity as activator relative to 2-5A (5'-triphosphorylated trimer),[4],more than 100 fold
same,competition with binding of the 2-5A probe,[5],not prevented
A(2'p5'A)3,activation of 2-5A-dependent RNase (in words),[4],enhanced activity
A(2'p5'A)4,activation of 2-5A-dependent RNase (in words),[4],enhanced activity
p3 (A2'p)2 A,competition with binding of the 2-5A probe,[3],completely prevents probe binding
same,concentration of competitor that prevents 2-5A probe binding,[3],about 20 nM
same,concentration giving maximal activation of 2-5A-dependent RNase,[4],1 nM
same,competition with binding of the 2-5A probe,[5],effectively competes
same,RNA (poly(rU)) degraded,[6],93%
p3 I2'pA2'pA,concentration of competitor that prevents 2-5A probe binding,[3],about 1.0 μM
same,activation of 2-5A-dependent RNase (in words),[4],more than ten-fold less effective
same,fold reduced activity as activator relative to 2-5A (5'-triphosphorylated trimer),[4],10 fold
pA(2'p5'A)3,concentration giving maximal activation of 2-5A-dependent RNase,[4],1 nM
pppA(2'p5'A)3,concentration giving maximal activation of 2-5A-dependent RNase,[4],1 nM
B1,"2-5A binding activity, % of the activity of clone ZB1",2-5A probe,completely lacking
B2,loss of 2-5A binding activity as compared to clone ZB1,2-5A probe,about 26%
B3,"2-5A binding activity, % of the activity of clone ZB1",2-5A probe,about 38.3%
